IC50, Activity and inhibition data for eight compounds are collected here from ChEMBL document CHEMBL5543059, “Discovery of anti-inflammatory natural flavonoids: Diverse scaffolds and promising leads for drug discovery” (Eur J Med Chem, 2023).

For experiment [1], the system named is Neutrophil. Kind of experiment: Inhibition of fMLF/CB-induced human Neutrophil activation assessed as reduction in elastase release using MeO-Suc-Ala-Ala-Pro-Val-pnitroanilide as substrate pre-incubated for 2 mins followed by fMLF/CB-stimulation and measured for 5 mins. The experiment is classed as functional, cell-based.
A further experiment deals with HaCaT. The experiment can be described thus: Anti-inflammatory activity in LPS-stimulated human HaCaT cells assessed as reduction of IL-6 expression at 12.5 uM. The format is functional. Details: scale not given: the % may be the effect or the level left.
Experiment [2] addresses Transient receptor potential cation channel subfamily V member 1 (Homo sapiens) (UniProt Q8NER1). The experiment can be described thus: Inhibition of TRPV-1 (unknown origin) at 12.5 uM relative to control.
Experiment [3] concerns RAW264.7. The experiment can be described thus: Inhibition of NF-kappaB activation in mouse RAW264.7 cells expressing luciferase gene at 100 microg/ml by luciferase reporter gene assay. The experiment is classed as cell-based. The following applies: dose 100.0 µg/ml. In general terms: A reporter such as luciferase makes a cellular process visible.
A short description of experiment [4]: Anti-inflammatory activity in LPS-stimulated human PBMC cells assessed as 5-lipoxygenase inhibition at 100 ug/ml relative to control. The experiment is classed as functional. Set-up: scale not given: the % may be the effect or the level left. The following applies: dose 100 µg/ml.
Experiment [5] can be described thus: Anti-inflammatory activity in LPS-stimulated human PBMC cells assessed as inhibition of TNFalpha at 100 ug/ml relative to control. The format is functional. Details: scale not given: the % may be the effect or the level left. The following applies: dose 100 µg/ml.
A short description of experiment [6]: Antioxidant activity assessed as DPPH radical scavenging activity at 100 microg/ml relative to control. The experiment is classed as functional. The following applies: dose 100.0 µg/ml. Background: DPPH is a stable violet radical that fades when it is reduced.
A short description of experiment [7]: Anti-inflammatory activity in LPS-stimulated human PBMC cells assessed as COX-2 inhibition at 100 ug/ml relative to control. Details: scale not given: the % may be the effect or the level left. The following applies: dose 100 µg/ml. The format is functional.
Experiment [8] deals with RAW264.7. Kind of experiment: Anti-inflammatory activity against mouse RAW264.7 cells assessed as inhibition of LPS-induced NO production pre-treated with compound for 1 hr followed by LPS-stimulation and measured for 1 hr. The format is functional, cell-based.
Experiment [9] has as its system Rat aortic endothelial cell. The experiment can be described thus: Inhibition of NF-kappaB p65 phosphorylation in high glucose-induced Rat aortic endothelial cell at 0.1 uM relative to control. The format is cell-based.
Experiment [10] addresses T1, Inhibitor of nuclear factor kappa-B kinase subunit beta (Homo sapiens) (UniProt O14920).
T1 sequence (whole entry): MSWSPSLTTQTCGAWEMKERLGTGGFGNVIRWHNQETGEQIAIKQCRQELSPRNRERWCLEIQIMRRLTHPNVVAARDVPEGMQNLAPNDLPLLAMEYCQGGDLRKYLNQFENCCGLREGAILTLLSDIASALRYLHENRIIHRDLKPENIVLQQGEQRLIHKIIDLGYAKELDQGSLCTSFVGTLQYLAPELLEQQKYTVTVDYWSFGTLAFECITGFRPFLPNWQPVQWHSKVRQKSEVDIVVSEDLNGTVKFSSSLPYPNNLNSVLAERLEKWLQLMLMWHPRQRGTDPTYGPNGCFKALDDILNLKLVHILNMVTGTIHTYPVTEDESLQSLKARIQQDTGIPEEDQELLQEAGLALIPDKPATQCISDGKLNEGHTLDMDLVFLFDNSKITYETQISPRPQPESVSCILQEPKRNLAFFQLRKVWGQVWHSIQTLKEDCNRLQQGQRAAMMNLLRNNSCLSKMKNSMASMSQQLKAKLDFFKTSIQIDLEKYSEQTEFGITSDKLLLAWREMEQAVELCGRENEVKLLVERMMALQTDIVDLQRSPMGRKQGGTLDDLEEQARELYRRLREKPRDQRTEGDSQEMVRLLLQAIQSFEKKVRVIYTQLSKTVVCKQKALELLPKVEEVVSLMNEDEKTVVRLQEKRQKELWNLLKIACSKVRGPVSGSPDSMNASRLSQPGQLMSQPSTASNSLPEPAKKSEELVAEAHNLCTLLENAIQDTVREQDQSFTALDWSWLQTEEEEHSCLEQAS
The experiment can be described thus: Inhibition of IKKbeta phosphorylation in high glucose-induced HUVEC cells at 0.1 uM relative to control. The experiment is classed as cell-based.

In experiment [11] the target is T1, Inhibitor of nuclear factor kappa-B kinase subunit beta (Homo sapiens). The experiment can be described thus: Inhibition of IKKbeta phosphorylation in high glucose-induced HUVEC cells at 1 uM relative to control. The experiment is classed as cell-based.
In experiment [12] the test system is Rat aortic endothelial cell. The experiment can be described thus: Inhibition of NF-kappaB p65 phosphorylation in high glucose-induced Rat aortic endothelial cell at 10 uM relative to control. The format is cell-based.
The target in experiment [13] is T1, Inhibitor of nuclear factor kappa-B kinase subunit beta (Homo sapiens). Kind of experiment: Inhibition of IKKbeta phosphorylation in high glucose-induced HUVEC cells at 10 uM relative to control. The experiment is classed as cell-based.
In experiment [14] the test system is Rat aortic endothelial cell. Kind of experiment: Inhibition of NF-kappaB p65 phosphorylation in high glucose-induced Rat aortic endothelial cell at 1 uM relative to control. The format is cell-based.
Another experiment addresses T2, Neutrophil elastase (Homo sapiens, UniProt P08246).
T2 sequence (P08246 whole entry): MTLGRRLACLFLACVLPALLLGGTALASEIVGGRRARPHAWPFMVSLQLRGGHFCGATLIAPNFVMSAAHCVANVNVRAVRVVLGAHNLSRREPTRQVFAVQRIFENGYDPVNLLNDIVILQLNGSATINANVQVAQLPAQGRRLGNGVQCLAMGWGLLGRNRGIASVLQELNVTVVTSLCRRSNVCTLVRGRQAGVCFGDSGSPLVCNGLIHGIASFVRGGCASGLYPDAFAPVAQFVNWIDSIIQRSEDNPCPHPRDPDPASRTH
Kind of experiment: Inhibition of human Neutrophil elastase. The experiment is classed as cell-based.

The subject of experiment [15] is Rattus norvegicus. The experiment can be described thus: Anti-inflammatory activity against carrageenan-induced paw edema in Wistar rat assessed as reduction in paw edema at 100 mg/kg, po measured after 3 hrs relative to control. The format is functional. Set-up: scale not given: the % may be the effect or the level left. For orientation: Carrageenan injected into the paw causes an acute inflammation.

Experiment [16] is described as follows: Anti-inflammatory activity in carrageenan-induced human PBMC cells assessed as inhibition of IL-beta leakage at 10 uM measured for 24 hrs relative to control. Set-up: scale not given: the % may be the effect or the level left. The experiment is classed as functional.
The subject of experiment [17] is Mus musculus. Kind of experiment: Anti-inflammatory activity against xylene-induced ear edema Swiss mouse model assessed as inhibition of ear edema at 0.025 ug/ml, po measured after 6 hrs relative to control. The format is functional. Details: scale not given: the % may be the effect or the level left. The following applies: dose 0.025 µg/ml.
In experiment [18] the test system is Rattus norvegicus. Kind of experiment: Anti-inflammatory activity against carrageenan-induced paw edema in Wistar rat assessed as reduction in paw edema at 100 mg/kg, po measured after 1 hrs relative to control. The experiment is classed as functional. Set-up: scale not given: the % may be the effect or the level left.
Experiment [19] relates to Neutrophil. Kind of experiment: Inhibition of fMLF/CB-induced human Neutrophil activation assessed as reduction in elastase release at 10 uM relative to control. The format is functional. Details: scale not given: the % may be the effect or the level left.
For experiment [20], the system named is Mus musculus. The experiment can be described thus: Anti-inflammatory activity against xylene-induced ear edema Swiss mouse model assessed as inhibition of ear edema at 0.25 ug/ml, po measured after 6 hrs relative to control. The following applies: dose 0.25 µg/ml. Details: scale not given: the % may be the effect or the level left. The format is functional.

The subject of experiment [21] is RAW264.7. Kind of experiment: Anti-inflammatory activity against mouse RAW264.7 cells assessed as inhibition of LPS-induced NO production. The experiment is classed as functional, cell-based.
Experiment [22] has as its system BV-2. The experiment can be described thus: Anti-inflammatory activity against LPS-induced mouse BV-2 cells assessed as reduction in Interleukin-1beta production at 10 uM pre-incubated for 30 mins followed by LPS-stimulation and measured after 6 hrs by RT-PCR analysis. The following applies: time 390 min, 6.5 h. Set-up: scale not given: the % may be the effect or the level left. The format is functional.

Experiment [23] concerns BV-2. Kind of experiment: Anti-inflammatory activity against LPS-induced mouse BV-2 cells assessed as inhibition of COX-2 level at 12.5 microg/ml pre-incubated for 30 mins followed by LPS-stimulation and measured after 6 hrs by RT-PCR analysis. Set-up: scale not given: the % may be the effect or the level left. The following applies: dose 12.5 µg/ml; time 390 min; 6.5 h. The format is functional.

The subject of experiment [24] is BV-2. The experiment can be described thus: Anti-inflammatory activity against LPS-induced mouse BV-2 cells assessed as inhibition of 5-lipoxygenase level at 25 microg/ml pre-incubated for 30 mins followed by LPS-stimulation and measured after 6 hrs by RT-PCR analysis. The format is functional. The following applies: dose 25 µg/ml; time 390 min; 6.5 h. Set-up: scale not given: the % may be the effect or the level left.

For experiment [25], the system named is BV-2. The experiment can be described thus: Anti-inflammatory activity against LPS-induced mouse BV-2 cells assessed as reduction in IL-6 production at 10 uM pre-incubated for 30 mins followed by LPS-stimulation and measured after 6 hrs by RT-PCR analysis. Details: scale not given: the % may be the effect or the level left. The format is functional. The following applies: time 390 min, 6.5 h.

Experiment [26] has as its system Mus musculus. Kind of experiment: Anti-inflammatory activity in mouse model of xylene-induced auricle edema assessed as inhibition of ear swelling at 200 mg/kg, IG pre-treated for 1 hr followed by xylene addition and measured after 1 hr relative to control. The format is functional. Details: scale not given: the % may be the effect or the level left.
Experiment [27] has as its system Mus musculus. The experiment can be described thus: Analgesic activity against acetic acid-induced BALB/c writhing mouse model assessed as inhibition of writhing at 10 mg/kg, ip pre-incubated for 30 mins followed by acetic acid addition and measured after 15 mins relative to control. The experiment is classed as functional. Details: scale not given: the % may be the effect or the level left. The following applies: time 45 min, 0.75 h.

Experiment [28] concerns Neutrophil. The experiment can be described thus: Inhibition of fMLF-induced chemotaxis in human neutrophils pretreated for 45 mins followed by fMLF-stimulation measured for 1 hr by luminescence based analysis. The experiment is classed as functional, cell-based.
For experiment [29], the system named is Mus musculus. The experiment can be described thus: Antiinflammatory activity in carrageenan-induced Kunming mouse model of paw edema assessed as paw volume at 1 mg/kg, ip pre-incubated for 1 hr followed by carrageenan administration measured for 60 mins relative to control. The format is functional. The following applies: time 2 hrs.

Chain of Transient receptor potential cation channel subfamily V member 1 (Homo sapiens) (Q8NER1 whole entry): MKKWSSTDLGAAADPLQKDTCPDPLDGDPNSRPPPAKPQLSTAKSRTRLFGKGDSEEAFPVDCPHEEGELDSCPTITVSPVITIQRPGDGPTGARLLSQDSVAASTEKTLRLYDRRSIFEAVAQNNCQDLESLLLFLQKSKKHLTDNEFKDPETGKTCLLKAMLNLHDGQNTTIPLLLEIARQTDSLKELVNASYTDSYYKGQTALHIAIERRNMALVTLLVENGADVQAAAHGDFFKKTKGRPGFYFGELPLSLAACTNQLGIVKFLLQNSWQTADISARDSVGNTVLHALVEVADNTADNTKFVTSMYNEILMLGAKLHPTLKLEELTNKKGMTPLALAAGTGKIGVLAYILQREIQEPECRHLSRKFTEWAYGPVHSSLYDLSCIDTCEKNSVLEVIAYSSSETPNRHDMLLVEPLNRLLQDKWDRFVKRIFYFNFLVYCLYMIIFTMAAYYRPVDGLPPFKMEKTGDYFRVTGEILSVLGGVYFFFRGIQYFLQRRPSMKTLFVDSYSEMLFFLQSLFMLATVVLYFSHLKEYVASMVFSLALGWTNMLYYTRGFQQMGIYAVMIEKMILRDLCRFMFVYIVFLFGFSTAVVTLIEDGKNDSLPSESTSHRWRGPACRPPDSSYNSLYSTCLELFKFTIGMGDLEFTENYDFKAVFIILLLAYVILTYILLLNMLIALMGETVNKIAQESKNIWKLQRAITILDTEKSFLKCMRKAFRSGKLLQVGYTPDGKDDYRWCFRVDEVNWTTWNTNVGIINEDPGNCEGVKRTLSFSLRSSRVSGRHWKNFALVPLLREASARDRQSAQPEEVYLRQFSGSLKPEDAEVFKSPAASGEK

Regarding `COc1cc(O)c2c(=O)cc(-c3ccc(O)c(O)c3)oc2c1`, the IC50 with Neutrophil [1] is at most 15.2 µM. In addition, in the experiment on HaCaT, the Activity was determined as 52%. The inhibition in [2] came out at 33%.

For `COc1cc(-c2cc(=O)c3c(O)cc(O)cc3o2)cc(O)c1OC`, in the experiment with RAW264.7 [3], the inhibition was found to be 23.1%. For the same compound, the Activity in experiment [4] was found to be 98.4%; in experiment [5] it was 86.1%; in experiment [6], 40%; in experiment [7], 83.3%.

Turning to `CC(C)=CCC/C(C)=C/Cc1c(O)ccc2c1O[C@H](c1ccc(O)cc1)CC2=O`, the IC50 in the experiment on RAW264.7 [8] stood at 8.13 µM.

Turning to `COc1c(O)cc2oc(-c3ccc(O)cc3)cc(=O)c2c1O`, the inhibition was found to be 26.1% in experiment [9]; 23.2% in experiment [10]; 53.6% in [11]; 93.2% in experiment [12]; 88.4% in [13]; 57.4% in experiment [14].

Turning to `COc1ccc(-c2cc(=O)c3c(O)c(OC)c(OC)c(OC)c3o2)cc1OC` [5-DEMETHYLNOBILETIN], it took 0.35 µM to reach half-maximal inhibition against Neutrophil elastase (IC50). Besides, the Activity in the experiment on Rattus norvegicus [15] amounted to 47%; in experiment [16], 24.8%; with Mus musculus [17], 79%; in the experiment on Rattus norvegicus [18], 65%; in the experiment with Neutrophil [19] it was 89%; in the experiment with Mus musculus [20], 41%.

As for `O=c1cc(-c2ccc(O)cc2)oc2cc(O)cc(O)c12` [APIGENIN], in the experiment with RAW264.7 [21], the IC50 was 12.2 µM. The Activity was determined as 68% in the experiment with BV-2 [22], 89.2% in the experiment on BV-2 [23], 88.3% in the experiment with BV-2 [24] and 68% with BV-2 [25].

Turning to `CC(=O)Oc1ccccc1C(=O)O` [ASPIRIN], the Activity in the experiment on Mus musculus [26] is on record as 41.07%.

Turning to `O=c1cc(-c2ccccc2)oc2cc(O)cc(O)c12` [CHRYSIN], the Activity in the experiment with Mus musculus [27] stood at 56%; with Mus musculus [29], 25%. The IC50 in the experiment with Neutrophil [28] was determined as 2.25 µM.

A word on the IC50: it is the concentration at which inhibition is half-maximal. The term inhibition denotes the drop in the measured response relative to a control, in per cent.
